One may read the MBC as the lowest tested concentration that kills the bacteria rather than only halting them. A low value points to greater bactericidal potency. One may read the MIC as the least concentration at which growth counts as inhibited. A high value points to a less susceptible organism.

This is an account of results in ChEMBL document CHEMBL1147435, “Synthesis and antibiotic activity of the tricyclic furo[3,2-c] isochromen-2-trione unit of the pyranonaphthoquinones” (2004).

Holding throughout (assay type): functional
For assay [1], the system named is Staphylococcus aureus. The assay is described as follows: Minimum bactericidal concentration of compound against Staphylococcus aureus.
For assay [2], the system named is Bacillus subtilis. The assay is described as follows: Minimum inhibitory concentration of compound against Bacillus subtilis.
Assay [3] deals with Bacillus subtilis. The assay is described as follows: Minimum bactericidal concentration of compound against Bacillus subtilis.
Assay [4] deals with Staphylococcus aureus. Briefly: Minimum inhibitory concentration of compound against Staphylococcus aureus.

Values after ≈ are worked out from the molar mass of the structure shown.

As to `COC1=CC(=O)C2=C(COC3CC(=O)OC23)C1=O` (stereo not drawn), the MBC is > 128 µg/mL with Staphylococcus aureus [1] and 128 µg/mL (≈ 512 µM) against Bacillus subtilis [3]. Besides, the MIC in the assay with Bacillus subtilis [2] turned out to be 32 µg/mL (≈ 128 µM); against Staphylococcus aureus [4], 64 µg/mL (≈ 256 µM).

On to `COc1ccc2c(c1OC)COC1CC(=O)OC21` (stereo not drawn), for which the MBC in the assay with Staphylococcus aureus [1] and with Bacillus subtilis [3] was > 128 µg/mL throughout. Further, the minimal inhibitory concentration (MIC) in the assay with Bacillus subtilis [2] and against Staphylococcus aureus [4] was 128 µg/mL (≈ 511 µM) each time.
